According to patent US7977484B2, “Crystalline form of cyano-1-cyclopropy1-7-1S,6S-2,8-diazabicyclo[4.3.0]nonan-8-yl)-6-fluoro-1,4-dihydro-4-oxo-3-quinoline carboxylic acid” (Bayer Animal Health GmbH, priority 2004, dated 2011):

Experiments:
[1] = storage stability of the crystal form; type: physicochemical; settings: prolonged storage
[2] = water uptake from the air (hygroscopicity); type: physicochemical

In the case of `N#Cc1c(N2C[C@@H]3CCCN[C@@H]3C2)c(F)cc2c(=O)c(C(=O)O)cn(C3CC3)c12` [Pradofloxacin trihydrate, pradofloxacin trihydrate], the “conversion to other crystal forms” value [1] is reported as “not converted to other crystal forms” and the “tendency to take up further water from the air” value [2] is reported as “does not show any tendency to take up further water from the air”.
